The first assay deals with GDF8 signaling (p-SMAD-3 (Ser423/425)). Kind of assay: AlphaScreen SureFire SMAD3 (p-Ser423/425) assay, GDF8-stimulated cells (GDF pSMAD). The assay is classed as cell-based. The conditions noted are these: MPC11; GDF8-stimulated; p-SMAD3 AlphaScreen; read-out: GDF pSMAD (MPC11) (inhibition of GDF8 signaling). Background: Bead proximity is the source of the signal in Alpha formats.
Turning to `Cc1cc(-c2ncccc2-c2ccc3ncc(C(=O)NC4CC5CCC(C4)N5C)n3c2)ccc1F` (stereo not drawn) [compound 712, exo-6-(2-(4-Fluoro-3-methylphenyl)pyridin-3-yl)-N-(8-methyl-8-azabicyclo[3.2.1]octan-3-yl)imidazo[1,2-a]pyridine-3-carboxamide], the IC50 amounted to 4060 nM.

As for `Cc1cc(-c2ncccc2-c2ccc3ncc(C(=O)NC4CC5CCC(C4)N5C)n3c2)ccc1F` (stereo not drawn) [compound 713, endo-6-(2-(4-Fluoro-3-methylphenyl)pyridin-3-yl)-N-(8-methyl-8-azabicyclo[3.2.1]octan-3-yl)imidazo[1,2-a]pyridine-3-carboxamide], the IC50 worked out at 10200 nM.

On to `Cc1cc(-c2ncccc2-c2ccn3ncc(C(=O)NC4CC5CCC(C4)N5C)c3c2)ccc1F` (stereo not drawn) [compound 715, exo-5-(2-(4-Fluoro-3-methylphenyl)pyridin-3-yl)-N-(8-methyl-8-azabicyclo[3.2.1]octan-3-yl)pyrazolo[1,5-a]pyridine-3-carboxamide], for which the IC50 was determined as 2030 nM.

As to `Cc1cc(-c2ncccc2-c2ccn3ncc(C(=O)NC4CC5CCC(C4)N5C)c3c2)ccc1F` (stereo not drawn) [compound 716, endo-5-(2-(4-Fluoro-3-methylphenyl)pyridin-3-yl)-N-(8-methyl-8-azabicyclo[3.2.1]octan-3-yl)pyrazolo[1,5-a]pyridine-3-carboxamide], the IC50 stood at 5030 nM.

The assay is the same for the next values; noted with them: Mus musculus, MPC-11, MPC11; GDF8-stimulated; p-SMAD3 AlphaScreen; read-out: GDF pSMAD (MPC11) (inhibition of GDF8 signaling).
For `Cc1cc(-c2ncccc2-c2ccn3ncc(C(=O)NC4CC(C)(C)N(C)C(C)(C)C4)c3c2)ccc1F` [compound 703, 5-(2-(4-Fluoro-3-methylphenyl)pyridin-3-yl)-N-(1,2,2,6,6-pentamethylpiperidin-4-yl)pyrazolo[1,5-a]pyridine-3-carboxamide], the IC50 was 208 nM.

Consider `Cc1cc(-c2ncccc2-c2ccc3ncc(C(=O)NCCCO)n3c2)ccc1F` [compound 704, 6-(2-(4-Fluoro-3-methylphenyl)pyridin-3-yl)-N-(3-hydroxypropyl)imidazo[1,2-a]pyridine-3-carboxamide], for which the IC50 amounted to 280 nM.

For the compound `Cc1cc(-c2ncccc2-c2ccc3ncc(C(=O)NCCO)n3c2)ccc1F` [compound 705, 6-(2-(4-Fluoro-3-methylphenyl)pyridin-3-yl)-N-(2-hydroxyethyl)imidazo[1,2-a]pyridine-3-carboxamide], the IC50 is 122 nM.

On to `Cc1cc(-c2ncccc2-c2ccn3ncc(C(=O)NCCCO)c3c2)ccc1F` [compound 706, 5-(2-(4-Fluoro-3-methylphenyl)pyridin-3-yl)-N-(3-hydroxypropyl)pyrazolo[1,5-a]pyridine-3-carboxamide], for which the IC50 was 228 nM.

As for `Cc1cc(-c2ncccc2-c2ccn3ncc(C(=O)NCCO)c3c2)ccc1F` [compound 707, 5-(2-(4-Fluoro-3-methylphenyl)pyridin-3-yl)-N-(2-hydroxyethyl)pyrazolo[1,5-a]pyridine-3-carboxamide], the IC50 worked out at 222 nM.

Take `CN1CCC(NC(=O)c2cnc3ccc(-c4cccnc4-c4cccc(Cl)c4)cn23)CC1` [compound 708, 6-(2-(3-Chlorophenyl)pyridin-3-yl)-N-(1-methylpiperidin-4-yl)imidazo[1,2-a]pyridine-3-carboxamide]: the IC50 was 266 nM.

For the compound `CN1CCC(NC(=O)c2cnc3ccc(-c4cccnc4-c4ccc(F)c(Cl)c4)cn23)CC1` [compound 709, 6-(2-(3-Chloro-4-fluorophenyl)pyridin-3-yl)-N-(1-methylpiperidin-4-yl)imidazo[1,2-a]pyridine-3-carboxamide], the IC50 came out at 252 nM.

Take `CN1CCC(NC(=O)c2cnc3ccc(-c4cccnc4-c4cc(F)c(F)cc4F)cn23)CC1` [compound 710, N-(1-Methylpiperidin-4-yl)-6-(2-(2,4,5-Trifluorophenyl)pyridin-3-yl)imidazo[1,2-a]pyridine-3-carboxamide]: the IC50 is 1220 nM.

For the compound `Fc1ccc(Cl)cc1-c1ncccc1-c1ccc2ncsc2c1` [compound 717, 6-(2-(5-Chloro-2-fluorophenyl)pyridin-3-yl)benzo[d]thiazole], the IC50 came to 217 nM.

With `Fc1cc(F)c(-c2ncccc2-c2ccc3ncsc3c2)cc1Cl` [compound 718, 6-(2-(5-Chloro-2,4-difluorophenyl)pyridin-3-yl)benzo[d]thiazole], the IC50 was found to be 314 nM.

On to `N#Cc1cnc2ccc(-c3cccnc3-c3cc(Cl)ccc3F)cn12` [compound 719, 6-(2-(5-Chloro-2-fluorophenyl)pyridin-3-yl)imidazo[1,2-a]pyridine-3-carbonitrile], for which the IC50 stood at 402 nM.

As for `N#Cc1cnc2ccc(-c3cccnc3-c3cc(Cl)c(F)cc3F)cn12` [compound 720, 6-(2-(5-Chloro-2,4-difluorophenyl)pyridin-3-yl)imidazo[1,2-a]pyridine-3-carbonitrile], the IC50 was 822 nM.

`Fc1ccc(Cl)cc1-c1ncccc1-c1ccc2nccn2c1` [compound 721, 6-(2-(5-Chloro-2-fluorophenyl)pyridin-3-yl)imidazo[1,2-a]pyridine]: the IC50 is 440 nM.

Turning to `CN1CCC(NC(=O)c2cnc3ccc(-c4cccnc4-c4cc(Cl)ccc4F)cn23)CC1` [compound 722, 6-(2-(5-Chloro-2-fluorophenyl)pyridin-3-yl)-N-(1-methylpiperidin-4-yl)imidazo[1,2-a]pyridine-3-carboxamide], the IC50 stood at 63.9 nM.

For `CN1CCC(NC(=O)c2cnc3ccc(-c4cccnc4-c4cc(Cl)c(F)cc4F)cn23)CC1` [compound 723, 6-(2-(5-Chloro-2,4-difluorophenyl)pyridin-3-yl)-N-(1-methylpiperidin-4-yl)imidazo[1,2-a]pyridine-3-carboxamide], the IC50 turned out to be 102 nM.

Regarding `Cc1cccc(-c2ncccc2-c2ccc3ncc(C(=O)NCCCN4CCCC4=O)n3c2)c1` [compound 724, N-(3-(2-Oxopyrrolidin-1-yl)propyl)-6-(2-(m-tolyl)pyridin-3-yl)imidazo[1,2-a]pyridine-3-carboxamide], the IC50 worked out at 537 nM.

For the compound `Cc1ccc(F)c(-c2ncccc2-c2ccc3ncc(C(=O)NCCCN4CCCC4=O)n3c2)c1` [compound 725, 6-(2-(2-Fluoro-5-methylphenyl)pyridin-3-yl)-N-(3-(2-oxopyrrolidin-1-yl)propyl)imidazo[1,2-a]pyridine-3-carboxamide], the IC50 is 464 nM.

As for `O=C(NCCCN1CCCC1=O)c1cnc2ccc(-c3cccnc3-c3cccc(Cl)c3)cn12` [compound 726, 6-(2-(3-Chlorophenyl)pyridin-3-yl)-N-(3-(2-oxopyrrolidin-1-yl)propyl)imidazo[1,2-a]pyridine-3-carboxamide], the IC50 is 565 nM.

For the compound `O=C(NCCCN1CCCC1=O)c1cnc2ccc(-c3cccnc3-c3ccc(F)c(Cl)c3)cn12` [compound 727, 6-(2-(3-Chloro-4-fluorophenyl)pyridin-3-yl)-N-(3-(2-oxopyrrolidin-1-yl)propyl)imidazo[1,2-a]pyridine-3-carboxamide], the IC50 worked out at 886 nM.

`O=C(NCCCN1CCCC1=O)c1cnc2ccc(-c3cccnc3-c3cc(F)c(F)cc3F)cn12` [compound 728, N-(3-(2-Oxopyrrolidin-1-yl)propyl)-6-(2-(2,4,5-Trifluorophenyl)pyridin-3-yl)imidazo[1,2-a]pyridine-3-carboxamide]: the IC50 came out at 5060 nM.

As to `O=C(NCCCN1CCCC1=O)c1cnc2ccc(-c3cccnc3-c3cc(Cl)ccc3F)cn12` [compound 729, 6-(2-(5-Chloro-2-fluorophenyl)pyridin-3-yl)-N-(3-(2-oxopyrrolidin-1-yl)propyl)imidazo[1,2-a]pyridine-3-carboxamide], the IC50 was 286 nM.

Regarding `O=C(NCCCN1CCCC1=O)c1cnc2ccc(-c3cccnc3-c3cc(Cl)c(F)cc3F)cn12` [compound 730, 6-(2-(5-Chloro-2,4-difluorophenyl)pyridin-3-yl)-N-(3-(2-oxopyrrolidin-1-yl)propyl)imidazo[1,2-a]pyridine-3-carboxamide], the IC50 turned out to be 590 nM.

On to `Cc1cccc(-c2ncccc2-c2ccn3ncnc3c2)c1` [compound 732, 7-(2-(m-Tolyl)pyridin-3-yl)-[1,2,4]triazolo[1,5-a]pyridine], for which the IC50 was determined as 258 nM.

Consider `Fc1ccc(-c2ncccc2-c2ccn3ncnc3c2)cc1Cl` [compound 733, 7-(2-(3-Chloro-4-fluorophenyl)pyridin-3-yl)-[1,2,4]triazolo[1,5-a]pyridine], for which the IC50 is 1270 nM.

Take `Clc1cccc(-c2ncccc2-c2ccn3ncnc3c2)c1` [compound 734, 7-(2-(3-Chlorophenyl)pyridin-3-yl)-[1,2,4]triazolo[1,5-a]pyridine]: the IC50 came to 694 nM.

In the case of `Fc1cc(F)c(-c2ncccc2-c2ccn3ncnc3c2)cc1Cl` [compound 735, 7-(2-(5-Chloro-2,4-difluorophenyl)pyridin-3-yl)-[1,2,4]triazolo[1,5-a]pyridine], the IC50 was 676 nM.

Take `Fc1ccc(Cl)cc1-c1ncccc1-c1ccn2ncnc2c1` [compound 736, 7-(2-(5-Chloro-2-fluorophenyl)pyridin-3-yl)-[1,2,4]triazolo[1,5-a]pyridine]: the IC50 turned out to be 251 nM.

Consider `Cc1ccc(F)c(-c2ncccc2-c2ccn3ncnc3c2)c1` [compound 737, 7-(2-(2-Fluoro-5-methylphenyl)pyridin-3-yl)-[1,2,4]triazolo[1,5-a]pyridine], for which the IC50 amounted to 260 nM.

Turning to `Cc1cc(-c2ncccc2-c2ccc3nccnc3n2)ccc1F` [compound 738, 6-(2-(4-Fluoro-3-methylphenyl)pyridin-3-yl)pyrido[2,3-b]pyrazine], the IC50 was found to be 1380 nM.

`Clc1cccc(-c2ncccc2-c2ccc3nccnc3n2)c1` [compound 739, 6-(2-(3-Chlorophenyl)pyridin-3-yl)pyrido[2,3-b]pyrazine]: the IC50 is 2320 nM.

With `Fc1ccc(-c2ncccc2-c2ccc3nccnc3n2)cc1Cl` [compound 740, 6-(2-(3-Chloro-4-fluorophenyl)pyridin-3-yl)pyrido[2,3-b]pyrazine], the IC50 is 9500 nM.

Turning to `Fc1cc(F)c(-c2ncccc2-c2ccc3nccnc3n2)cc1F` [compound 741, 6-(2-(2,4,5-Trifluorophenyl)pyridin-3-yl)pyrido[2,3-b]pyrazine], the IC50 stood at 10000 nM.

The values are drawn from patent US10858335B2 (Rigel Pharmaceuticals, Inc., priority 2014, dated 2020).
